Data from US20130338228A1, “METHODS FOR FA[…] RECOVERY AFTER A PERIOD OF DISUSE USING BETA-HYDROXY-BETA-METHYLBUTYRATE” (ABBOTT LABORATORIES, priority 2010, published 2013).

Legend:
Format in all cases: in vivo, Fischer 344× Brown Norway rats
[1] = Body weight of aged rats after hind limb suspension and reloading
Method: (§1) Sixty-four aged (34 months of age) Fischer 344× Brown Norway rats are randomly assigned to a hind limb suspended (HS) group or a reloaded (R) group. The rats in each test group receive either: (1) 1 ml Ca-HMB (170 mg/ml distilled water); or (2) 1 ml of distilled water by gavage feeding per day. After one week, thirty-two rats (eight rats from the HS group receiving Ca-HMB; eight rats from the R group receiving Ca-HMB; eight rats from the HS group receiving water; and eight rats from the R group receiving water) are designated as part of the control groups (HS Control Group (16 rats) or R Control Group (16 rats)). The control groups maintain normal mobility throughout the test period, and are allowed to move freely around their cages. Data is collected from the HS Control Group after 14 days from initiation of the study prior to and following sacrifice. Data is collected from the R Control Group after 28 days from initiation of the study prior to and following sacrifice.
(§2) The remaining thirty-two rats (16 rats in HS Group and 16 rats in R Group) continue to receive either Ca-HMB or water and are subjected to hind limb suspension for 14 days. For the hind limb suspension, tape is applied along the proximal one-third of the tail and then placed through a wire harness that is attached to a fishlike swivel at the top of a specially designed hind limb suspension cage. The suspension allowed the rats 360° of movement around the cage. Sterile gauze is wrapped around the tape and is subsequently covered with a thermoplastic material. […] The suspension height is monitored and adjusted to prevent contact between the hind limb and any supportive surface of the cage. […] The forelimbs maintain contact with a grid floor, which allows the animals to move, groom themselves, and obtain food and water freely.
(§3) After 14 days of hind limb suspension, the hind limbs are released. The R Group is further allowed normal cage ambulation for an additional 14 days and then data is collected prior to and following sacrifice.
(§4) Each animal is weighed at the beginning of the experiment, following 14 days of hind limb suspension and after 14 days of reloading. With the animals deeply anesthetized, the soleus and the plantaris muscles are removed from both limbs, then blotted, and weighed. Animals are euthanized following this procedure. A block obtained from the mid-belly of the muscle is embedded in optimal cutting temperature (OCT) compound (Tissue-Tek; Andwin Scientific, Addison, Ill.), snap frozen in liquid nitrogen-cooled isopentane, and stored at −80° C. The remainder of the muscle is snap frozen in liquid nitrogen and stored at −80° C. until needed for subsequent analyses.

[2] = system: plantar flexor muscle group; assay: Maximal isometric force measurement after hind limb suspension and reloading
Method: as §1
The remaining thirty-two rats (16 rats in HS Group and 16 rats in R Group) continue to receive either Ca-HMB or water and are subjected to hind limb suspension for 14 days. For the hind limb suspension, tape is applied along the proximal one-third of the tail and then placed through a wire harness that is attached to a fishlike swivel at the top of a specially designed hind limb suspension cage. The suspension allowed the rats 360° of movement around the cage. […] The suspension height is monitored and adjusted to prevent contact between the hind limb and any supportive surface of the cage. […]
Force measurements: All force measurements are made while the animals are anesthetized with 98% oxygen and 2% isoflurane gas. […] The maximal isometric force of the plantar flexor muscle group is evaluated by stimulating the tibial nerve using supramaximal square wave pulses that are 4 V, 100 Hz for a duration of 3 seconds using a SD9 stimulator (Grass Medical Instruments, Quincy, Mass.). Maximal force is determined using Labview based software. […]

[3] = system: soleus and plantaris muscles; assay: Muscle wet weight after hind limb suspension and reloading
Method: as §1, §2, §3, §4

[4] = system: soleus and plantaris muscle fibers; assay: Muscle fiber cross sectional area (CSA) by planimetry
Method: as §1, §2, §3
Muscle fiber cross sectional area (CSA) is determined by planimetry from 750-1200 fibers that are obtained from four non-overlapping regions of each tissue cross-section is stained for lamina. Fiber CSA is calculated by the Image J software.

[5] = system: TUNEL positive myonuclei in plantaris and soleus muscles; assay: Apoptotic myonuclei identified by TUNEL labeling (apoptotic index)
Method: as §1
The remaining thirty-two rats (16 rats in HS Group and 16 rats in R Group) continue to receive either Ca-HMB or water and are subjected to hind limb suspension for 14 days. For the hind limb suspension, tape is applied along the proximal one-third of the tail and then placed through a wire harness that is attached to a fishlike swivel at the top of a specially designed hind limb suspension cage. […] The suspension height is monitored and adjusted to prevent contact between the hind limb and any supportive surface of the cage. […]
10-μm-thick frozen cross sections from soleus and plantaris muscles are mounted on charged microscope slides (Fisher Scientific, Pittsburgh, Pa.). […] The number of TUNEL- and DAPI-positive nuclei that are immediately adjacent to, or beneath, the basal lamina is counted. Data is expressed as an apoptotic index, which is calculated by counting the number of TUNEL-positive nuclei divided by the total number of nuclei (i.e., DAPI-positive nuclei). The apoptotic index is determined from ˜1200 fibers, which are obtained from four non-overlapping regions of each tissue cross section.

[6] = system: Bax; assay: Western immunoblot of Bax in hind limb muscles
Method: (§5) Sixty-four aged (34 months of age) Fischer 344× Brown Norway rats are randomly assigned to a hind limb suspended (HS) group or a reloaded (R) group. The rats in each test group receive either: (1) 1 ml Ca-HMB (170 mg/ml distilled water); or (2) 1 ml of distilled water by gavage feeding per day. After one week, thirty-two rats (eight rats from the HS group receiving Ca-HMB; eight rats from the R group receiving Ca-HMB; eight rats from the HS group receiving water; and eight rats from the R group receiving water) are designated as part of the control groups (HS Control Group (16 rats) or R Control Group (16 rats)). […]
(§6) The remaining thirty-two rats (16 rats in HS Group and 16 rats in R Group) continue to receive either Ca-HMB or water and are subjected to hind limb suspension for 14 days. […] The suspension height is monitored and adjusted to prevent contact between the hind limb and any supportive surface of the cage. […]
(§7) Approximately seventy-five […] of muscle is homogenized in ice-cold RIPA buffer (1% Triton x-100, 150 mM NaCl, 5 mM EDTA, 10 mM Tris; pH 7.4), containing protease inhibitors (P8340, Sigma-Aldrich, St. Louis, Mo.), and phosphatase inhibitors (P2850; P5726, Sigma-Aldrich). The muscle homogenates are centrifuged at 1000×g for 5 minutes at 4° C., and the protein content of the supernatant is measured (500-0116; BioRad, Hercules, Calif.). […]

[7] = system: cleaved caspase-9; assay: Western immunoblot of cleaved caspase-9 in hind limb muscles; settings: plantaris and soleus muscles after both hind limb suspension and reloading, vs water-treated
Method: as §5, §6, §7

[8] = system: cleaved caspase-3; assay: Western immunoblot of cleaved caspase-3 in hind limb muscles
Method: as §5, §6, §7

[9] = system: Bcl-2; assay: Western immunoblot of Bcl-2 in hind limb muscles; settings: plantaris and soleus after either hind limb suspension or reloading (both conditions increase Bcl-2 by about 100%)
Method: as §5, §6, §7

[10] = system: satellite cells/muscle precursor cells; assay: Activation of satellite cells by BrdU labeling during reloading
Method: as §5, §6
Activated, proliferated satellite cells/muscle precursor cells were identified by immunofluorescence staining on BrdU and laminin as described previously (Siu 2005). […] The sections were finally stained with 4′,6-diamidino-2-phenylindole (DAPI) and examined under a fluorescence microscope with excitation wavelengths of 330-380 nm for DAPI blue fluorescence, 485-585 nm for Cy3 red fluorescence, and 450-490 nm for fluorescein green fluorescence. […]

[11] = HS induced, stated for both HMB and vehicle-treated animals, P<0.001
[12] = plantaris and soleus muscles after both hind limb suspension and reloading, vs water-treated

CC(C)(O)CC(=O)O [HMB, beta-hydroxy-beta-methylbutyrate]
body weight lowered by hind limb suspension ([1]; after 14 days of hind limb suspension, stated for both the HMB and water-treated groups): about 15%
decrease in body weight compared to the body weight of control animals ([1]; after 14 days of reloading): 4%
body weight reduced relative to the first experimental day ([1]; control rats (normal mobility) treated for five weeks): 7%
body weight reduced relative to the first experimental day ([1]; control rats (normal mobility) treated for three weeks): 1.3%
reduction of maximal in vivo plantarflexor isometric force by hind limb suspension ([2]; after 14 days of hind limb suspension): 23.7%
loss in maximal isometric plantarflexor force compared to isometric force in control animals ([2]; after reloading, P<0.01 vs water-treated rats): 27.3%
effect on loss of force ([2]; hind limb suspension and reloading): attenuate the loss of force
decrease in wet weight of the plantaris muscle [3, 11]: 19%
decrease in wet weight of the soleus muscle [3, 11]: 15%
effect on extent of HS-induced atrophy (muscle wet weight) ([3]; after 14 days of HS, relative to vehicle): did not significantly reduce
effect on plantaris muscle weight ([3]; after 14 days of reloading relative to vehicle-treated animals): significantly improved
effect against HS-induced loss in the soleus muscle (wet weight) ([3]; after HS, relative to vehicle-treated animals): did not provide protective effect
HS-induced decrease in fiber CSA, plantaris ([4]; after HS, p<0.05 vs vehicle): 26.4%
HS-induced decrease in fiber CSA, soleus ([4]; after HS, p<0.05 vs vehicle): 32.5%
frequency of fibers<1500 μm^2 ([4]; plantaris and soleus, recovered for 14 days following HS, Chi-squared analyses): significantly greater in the plantaris and soleus muscles of vehicle-treated animals as compared to HMB-treated animals
effect on fiber CSA after reloading as compared to HS ([4]; plantaris or soleus muscles, after 14 days of reloading): did not further improve
increase of apoptotic index by HS compared to ambulatory control animals, plantaris ([5]; after HS, p<0.05): 3.0 fold
increase of apoptotic index by HS compared to ambulatory control animals, soleus ([5]; after HS, p<0.05): 1.8 fold
effect on TUNEL labeling in myonuclei of reloaded muscles ([5]; reloaded plantaris and soleus muscles): continued to suppress TUNEL labeling
Bax protein abundance in control muscles ([6]; control muscles of ambulatory animals (HS Con and R Con), FIG. 7B): reduces the protein abundance
Bax protein abundance [6, 12]: suppresses the protein abundance
cleaved caspase-9 protein abundance [7]: suppresses the protein abundance
cleaved caspase-3 protein abundance in control muscles ([8]; control muscles of ambulatory animals (HS Con and R Con), FIG. 9B): reduces the protein abundance
cleaved caspase-3 protein abundance [8, 12]: suppresses the protein abundance
Bcl-2 protein, difference between HMB and water-treated muscles [9]: may not be a significant difference
number of BrdU positive nuclei relative to vehicle-treated rats ([10]; during recovery from muscle disuse): almost twice the number
number of BrdU-positive nuclei to total nuclei ([10]; soleus, 14 day recovery period, mean+/−SE, p=0.001 vs control): 8.1+/−2%
